What all share (assay type): in vivo
For experiment [1], the system named is Tetranychus urticae (spider mites - adult). Description: Contact test on spider mites - adult (TUa), French bean leaf, mortality. The following applies: 72 h, 500 ppm, contact, 3 days, read-out: TUa grading of mortality. The method, boiled down: (§1)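 Product dissolved in acetone, diluted in water with 0.01% wetting agent to 500, 250 or 100 ppm; pests and/or host medium (plant or foodstuff) treated. Mortality or knockdown assessed 1–3 days later, graded A (80–100%), B (50–79%) or C (<50%).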

In experiment [2] the test system is Tetranychus urticae (spider mites - ova). Description: Contact test on spider mites - ova (TUe), French bean leaf, mortality. The note with it: 144 h, 500 ppm, contact, 6 days, read-out: TUe grading of mortality. The method, boiled down:
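Graded read-out: A 80-100%, B 50-79%, C below 50% mortality or knockdown, assessed usually 1-3 days post-treatment. Liquid preparations at 500, 250 or 100 ppm by weight, from acetone solution diluted in water with 0.01% wetting agent, applied to pests and/or their host plant or food medium.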

For the next experiment, the system named is Myzus persicae (aphids). Description: Contact test on aphids (MP), Chinese Cabbage leaf, mortality. The note with it: 72 h, 500 ppm, contact, 3 days, read-out: MP grading of mortality. The essentials: as §1
The test system of experiment [3] is Nilaparvata lugens (brown plant hopper). Description: Contact test on brown plant hopper (NL), Rice plant, mortality. The following applies: 72 h, 3 days, read-out: NL grading of mortality. Here is the method:
(§2) The activity of the Product was determined using a variety of insect pests. The Product was used in the form of liquid preparations containing 500, 250 or 100 parts per million (ppm) by weight of the Product. The preparations were made by dissolving the Product in acetone and diluting the solutions with water containing 0.01% by weight of a wetting agent sold under the trade name "LISSAPOL" NX until the liquid preparations contained the required concentration of the Product. "Lissapol" is a Registered Trade Mark.
(§3) The test procedure adopted with regard to each pest was basically the same and comprised supporting a number of the pests on a medium which was usually a host plant or a foodstuff on which the pests feed, and treating either or both the pests and the medium with the preparations. The mortality of the pests was then assessed at periods usually varying from one to three days after the treatment.
(§4) The results of the tests are given in Table III for each of the Products, at the rate in parts per million given in the second column as a grading of mortality designated as A, B or C wherein A indicates 80-100% mortality or knockdown, B indicates 50-79% mortality or knockdown and C indicates less than 50% mortality or knockdown.

Experiment [4] has as its system Musca domestica (houseflies - adults). Description: Knockdown test on houseflies - adults (MD/KD), Cotton wool/sugar. The following applies: 500 ppm, 4 hours, read-out: MD/KD grading of knockdown. The essentials:
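Adult houseflies exposed to the compound at 500, 250 or 100 ppm in acetone/water with 0.01% wetting agent, on a cotton wool/sugar medium. Knockdown and mortality assessed, graded A (80-100%), B (50-79%) or C (<50%).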

Experiment [5] shares this test system. Description: Contact test on houseflies - adults (MD), Cotton wool/sugar, mortality. The note with it: 24 h, 500 ppm, contact, ** test duration of 1 day, read-out: MD grading of mortality. The essentials: as §1
Experiment [6] has as its system Blattella germanica (cockroach nymphs). Description: Residual test on cockroach nymphs (BG/R), Plastic pot, mortality. The following applies: 72 h, 3 days, read-out: BG/R grading of mortality. Here is the method:
as §2, §3, §4
BG/R Blattella germanica

For experiment [7], the system named is Heliothis virescens (tobacco budworm - larvae). Description: Residual test on tobacco budworm larvae (HV), Cotton leaf, mortality. The following applies: 48 h, read-out: HV grading of mortality. The method, boiled down: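 Product in acetone diluted with water containing 0.01% Lissapol NX, at 500, 250 or 100 ppm; pests and/or host medium (here cotton leaf) treated. Mortality scored one to three days later, graded A (80-100%), B (50-79%), C (<50%).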

Experiment [8] relates to Spodoptera exigua (lesser army worm - larvae). Description: Residual test on lesser army worm larvae (SP), Cotton leaf, mortality. The following applies: 48 h, 500 ppm, residual, * test duration of 3 days, read-out: SP grading of mortality. The essentials:
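Product dissolved in acetone and diluted in water with 0.01% wetting agent to 500, 250 or 100 ppm; larvae and/or cotton leaf host treated. Mortality or knockdown scored one to three days later and graded A (80-100%), B (50-79%) or C (<50%).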

The subject of experiment [9] is Diabrotica balteata (rootworm larvae). Description: Residual test on rootworm larvae (DB), Filter paper/maize seed, mortality. The note with it: 48 h, 500 ppm, residual, * test duration of 3 days, read-out: DB grading of mortality. The essentials:
as §1

Another experiment deals with insect and acarine pests. Description: Biological screening of enantiomers, insecticidal and acaricidal activity. The note with it: (-) versus (+) enantiomer.

Molecules are shown by their SMILES. Where only a bound is given, the exact number is not on record here.

On to `C=CCc1c(F)c(F)c(COC(=O)C(c2cnc(N(C)C)nc2)C(C)C)c(F)c1F` (racemic) [Compound 115, 2,3,5,6-tetrafluoro-4-(prop-2-en-1-yl)benzyl (RS)-2-[2-(N,N-dimethylamino)pyrimidin-5-yl]-3-methylbutanoate], for which the mortality at 500 ppm in [1] is 80 to 100%; in [2] it was 80 to 100%; in the experiment on Myzus persicae (aphids), 80 to 100%; in experiment [3], under 50%; in experiment [5] it was 80 to 100%; in experiment [6], 80 to 100%. Besides, the mortality at 500 ppm in experiment [7] was 80 to 100%; in experiment [8], 80 to 100%; in experiment [9], under 50%. For the same molecule, the pest or weed control at 500 ppm in [4] is under 50%.

As to `C=CCc1c(F)c(F)c(COC(=O)C(c2cnc(-c3ccccc3)nc2)C(C)C)c(F)c1F` (racemic) [Compound 113, 4-(prop-2-en-1-yl)-2,3,5,6-tetrafluorobenzyl (RS)-2-[2-phenylpyrimidin-5-yl)-3-methylbutanoate], the mortality at 500 ppm in experiment [1] is under 50%; in experiment [2], under 50%; in the experiment on Myzus persicae (aphids), 50 to 79%; in experiment [3], under 50%; in experiment [5], 80 to 100%; in experiment [6], under 50%. Moreover, the mortality at 500 ppm in experiment [7], in experiment [8] and in experiment [9] was under 50% each time. Further, in [4], the pest or weed control at 500 ppm lay within 80 to 100%.

In the case of `COCc1c(F)c(F)c(COC(=O)C(c2cnc(C(C)(C)C)nc2)C(C)(C)C)c(F)c1F` (single isomer, unassigned; enantiomer 4) [(-)-enantiomer, 4-(methoxymethyl)-2,3,5,6-tetrafluorobenzyl 2-[2-(1,1-dimethylethyl)pyrimidin-5-yl]-3,3-dimethylbutanoate], the “insecticidal and acaricidal activity of enantiomers” value in the experiment on insect and acarine pests was “substantially greater insecticidal and acaricidal activity than the (+)-enantiomer”.

As to `CC[C@@H](C(=O)O[C@@H](C#N)c1ccc(F)c(Oc2ccccc2)c1)c1cnc(C(C)(C)C)nc1` (racemic) [Compound 121, (RS)-α-cyano-4-fluoro-3-phenoxybenzyl (RS)-2-[2-(1,1-dimethylethyl)pyrimidin-5-yl]butanoate], the mortality at 500 ppm in [1] was 80 to 100%; in [2], under 50%; in the experiment on Myzus persicae (aphids) it was 80 to 100%; in experiment [3], under 50%; in [5], 80 to 100%; in experiment [6], under 50%. In addition, the mortality at 500 ppm in experiment [7], in [8] and in [9] was 80 to 100% throughout. Besides, the pest or weed control at 500 ppm in experiment [4] was 50 to 79%.

Take `COCc1c(F)c(F)c(COC(=O)C(c2cnc(C(F)(F)F)nc2)C(C)C)c(F)c1F` (racemic) [Compound 116, 2,3,5,6-tetrafluoro-4-(methoxymethyl)benzyl (RS)-2-(2-trifluoromethylpyrimidin-5-yl)-3-methylbutanoate]: the mortality at 500 ppm (in [1]; in experiment [2]; in the experiment with Myzus persicae (aphids); in experiment [3]; in experiment [5]; in experiment [6]) was 80 to 100% each time. The mortality at 500 ppm in experiment [7], in experiment [8] and in experiment [9] was 80 to 100% each time. Moreover, the pest or weed control at 500 ppm in [4] lay in the range of 80 to 100%.
